Reference: patent US10640457B2, “Histone acetyltransferase activators and uses thereof” (The Trustees of Columbia University in the City of New York, priority 2009, dated 2020)
“Also recorded” adds a separate entry of the source.

Legend:
APP/PS1 mice = test: Contextual and cued fear conditioning in APP/PS1 mice (TSA); assay type: in vivo
Method: Following experiments on acute effect of TSA in synaptic dysfunction, we determined if TSA is beneficial against impairment of contextual FC in APP/PS1 mice[A17]. 4 month-old mice were divided into 4 groups: APP/PS1 with TSA, APP/PS1 with vehicle, WT with TSA and WT with vehicle. TSA and vehicle control solution were administered i.p. at a concentration of 2 μg/g body weight. We found a similar shock threshold among the various groups of mice. Then, mice were trained to associate neutral stimuli with an aversive one. They were placed in a novel context (FC box), exposed to a white noise cue paired with a mild foot shock, and injected with TSA 2 hrs before training Fear learning was assessed 24 hrs later by measuring freezing behavior—the absence of all movement except for that necessitated by breathing—in response to representation of the context. We found no difference in the freezing behavior among the 4 groups of mice during the training phase of the FC. 24 hrs later, freezing behavior was decreased in vehicle-treated APP/PS1 mice compared to vehicle-treated WT littermates in analyzing contextual learning (FIG. 18).
HDAC inhibition rescues the defect in associative memory in APP/PS1 mice. Similar to humans affected by AD [B51] […] (herein incorporated by reference in its entirety). In rodents, associative learning can be assessed by contextual fear conditioning. This behavioral task, which is based on the association of a neutral stimulus with an aversive one, is dependent on hippocampal function [B52] (herein incorporated by reference in its entirety). Thus, following experiments on acute effect of TSA in synaptic dysfunction, we determined if TSA is beneficial against impairment of contextual fear conditioning in 3-4 month old APP/PS1 mice [B14] (herein incorporated by reference in its entirety). Animals were divided into 4 groups: APP/PS1 with TSA, APP/PS1 with vehicle, WT with TSA and WT with vehicle. TSA and vehicle control solution were administered i.p. at a concentration of 2 mg/Kg body weight. We found a similar shock threshold among the various groups of mice. Then, mice were trained to associate neutral stimuli with an aversive one. They were placed in a novel context (fear conditioning box), exposed to a white noise cue paired with a mild foot shock, and injected with TSA 2 hrs before training. Fear learning was assessed 24 hrs later by measuring freezing behavior—the absence of all movement except for that necessitated by breathing—in response to representation of the context. We found no difference in the freezing behavior among the 4 groups of mice during the training phase of the fear conditioning (F3,47=0.02997, p=0.9929, n=12-13/group; FIG. 18). Twenty-four hours later, we found a decreased freezing behavior in vehicle-treated APP/PS1 mice compared to vehicle-treated WT littermates in the analysis of the contextual learning (F3,47=[…], p=0.0280, n=12-13/group; FIG. 18).
Freezing in vehicle-treated APP/PS1 mice was about 46% that of vehicle-treated WT mice [vehicle-treated APP/PS1 mice: 14.88±2.97% vs. vehicle-treated WT littermates: 31.68±5.32%; n=13 (11 females plus 2 males) and n=13 (11 females plus 2 males), respectively; t=2.76, p=0.0109; FIG. 18]. […] We next tested cued fear conditioning, a hippocampus-independent task [B46] […] (herein incorporated by reference in its entirety).

Aβ42-infused mice = test: Two day radial arm water maze in Aβ-infused mice (YF2); assay type: in vivo
From the text: The task is a hybrid of the Morris Water Maze (MWM) and the radial arm land maze. This task is altered in Aβ-infused mice. The motivation for the animals is the immersion in water. The mouse needed to swim in 6 alleys (arms) radiating from a central area until it found a hidden (submerged) platform at the end of one of the arms, based on visual cues placed in the room. […] The first day of the protocol was a training day. Mice were trained to identify the platform location by alternating between a visible and a hidden platform in a goal arm. The final 3 trials on day 1 and all 15 trials on day 2 used a hidden escape platform to force mice to use spatial cues to identify the location of the goal arm.
To avoid learning limitations imposed by exhausting practice and to avoid fatigue that may result from consecutive trials, spaced practice training were established by running the mice in cohorts of 4 and alternating different cohorts through the 15 training trials over 3 hours testing periods each day. […] The number of incorrect arm entries (entries in arms with no platform) was counted. […] Failure to select an arm after 15 sec were counted as an error and the mouse was returned to the start arm. […]
Next, mice from the first cohort completed trials 7-12 again using the alternating visible-hidden platform location. […] For data analysis, averages for each mouse were calculated using blocks of 3 trials. […]

| Compound | contextual fear memory deficit in APP/PS1 mice (APP/PS1 mice; TSA i.p. 2 hrs before training) | freezing time relative to vehicle-treated APP/PS1 mice (APP/PS1 mice; TSA-treated APP/PS1 mice, 2 mg/Kg i.p.) | freezing, contextual fear conditioning 24 hrs after training (APP/PS1 mice; TSA-treated APP/PS1 mice, 2 mg/Kg i.p. 2 hrs before training) [%] | freezing, contextual fear conditioning 24 hrs after training (APP/PS1 mice; TSA-treated WT mice, 2 mg/Kg i.p.) [%] | cued fear conditioning, freezing among the 4 groups (APP/PS1 mice; pre-CS and CS) | RAWM performance, compound by itself (Aβ42-infused mice; 5 mg/kg i.p., no Aβ) | Aβ-induced reference memory impairment (RAWM errors) (Aβ42-infused mice; Aβ42-infused mice, i.p. 5 mg/kg 30 min prior to 1st and 7th trial, 5 mg/kg) |
| --- | --- | --- | --- | --- | --- | --- | --- |
| CC(/C=C/C(=O)NO)=C\[C@@H](C)C(=O)c1ccc(N(C)C)cc1 [TSA, trichostatin A] | improved memory; also recorded: ameliorates | about 236.27% | 35.15±6.99 | 36.95±6.43 | did not find a difference | – | – |
| CCOc1cccc(OCCN(C)C)c1C(=O)Nc1ccc(Cl)c(C(F)(F)F)c1 [YF2] | – | – | – | – | – | did not affect | ameliorated; also recorded: rescued |
